Data on 1 molecule can be found in patent EP0870197B2, “USE OF NUCLEAR MAGNETIC RESONANCE TO DESIGN LIGANDS TO TARGET BIOMOLECULES” (priority 1995, dated 1997).

As a reminder, the Ki is a dissociation constant, usually derived from enzyme kinetics or from competition with a known ligand. A lower Ki goes with a stronger hold on the target.

Data set [1] concerns the target T1, catalytic domain of stromelysin (Homo sapiens, UniProt P08254).
T1 construct: expression construct coding for amino acid residues 81-256 plus an initiating methionine; initiating methionine (N); made in house; host or cells: E. coli BL21(DE3)/pLysS, pET3d
As to the kind of experiment: two-dimensional 15N/1H NMR correlation titration, dissociation constant. In kind it is binding. The method, then:
Binding or dissociation constants are measured by following the ^15N/^1H chemical shifts of the protein as a function of ligand concentration. A known concentration ([P]o) of the target molecule is mixed with a known concentration ([L]0) of a previously identified ligand and the two-dimensional ^15N/^1H correlation spectrum was acquired. From this spectrum, observed chemical shift values (δobs) are obtained. The process is repeated for varying concentrations of the ligand to the point of saturation of the target molecule, when possible, in which case the limiting chemical shift value for saturation (δsat) is measured.
In those situations where saturation of the target molecule is achieved, the dissociation constant for the binding of a particular ligand to the target molecule is calculated using the formula: KD = (([P]0−x)([L]0−x))/(x) [formula] where [P]0 is the total molar concentration of target molecule; [L]0 is the total molar concentration of ligand; and x is the molar concentration of the bound species. The value of x is determined from the equation: x = (δobs −δfree)/(Δ) [formula] where δfree is the chemical shift of the free species; δobs is the observed chemical shift; and Δ is the difference between the limiting chemical shift value for saturation (δsat) and the chemical shift value of the target molecule free of ligand (δfree).
The dissociation constant is then determined by varying its value until a best fitto the observed data is obtained using standard curve-fitting statistical methods. In the case where δsat is not directly known, both KD and δsat are varied and subjected to the same curve-fitting procedure.
The catalytic domain of stromelysin was prepared in accordance with the procedures of Example 1. The protein solutions used in the screening assay contained the uniformly ^15N-labeled catalytic domain of stromelysin (0.3 mM), acetohydroxamic acid (500 mM), CaCl2 (20 mM), and sodium azide (0.5%) in a H2O/D2O (9/1) TRIS buffered solution (50 mM, pH=7.0).
Two-dimensional ^15N/^1H NMR spectra were generated at 29°C on a Bruker AMX500 NMR spectrometer equipped with a triple resonance probe and Bruker sample changer. The ^15N/^1H HSQC spectra were acquired as 80 x 1024 complex points using sweep widths of 2000 Hz (^15N, t^1) and 8333 Hz (^1H, t2). A delay of 1 second between scans and 8 scans perfree induction decay(fid) were employed in the data collection. All NMR spectra were processed and analyzed on Silicon Graphics computers using in-house-written software.
A first two-dimensional ^15N/^1 H NMR correlation spectrum was acquired for the ^15N-labeled stromelysin target molecule as described above. The stromelysin target was then exposed to a database of test compounds. Stock solutions of the compounds were made at 100 mM and 1 M. In addition, a combination library was prepared that contained 8-10 compounds per sample at a concentration of 100 mM for each compound.
The NMR samples were prepared by adding 4 µl of the DMSO stock solution of the compound mixtures that contained each compound at a concentration of 100 mM to 0.4 ml H2O/D2O (9/1) buffered solution of the uniformly ^15N-labeled protein. The final concentration of each of the compounds in the NMR sample was about 1 mM.
Various biaryl compounds of structure I were tested for binding to stromelysin at differing concentrations. The ^15N/^1H spectra generated at each concentration were evaluated to quantify differences in the spectra as a function of compound concentration. A binding or dissociation constant (KD)was calculated, using standard procedures well known in the art, from those differences. The values for R1-R3 and A1-A3 in Table 1 refer to the corresponding positions in the structure I, above.
All NMR measurements were performed in the presence of 500 mM acetohydroxamic acid, except for the titration of acetohydroxamic acid itself. Dissociation constants were obtained from the dependence of the observed chemical shift changes upon added ligand. […]

Data set [2] deals with T1, catalytic domain of stromelysin. As to the kind of experiment: enzymatic assay, cleavage of a fluorogenic substrate. In kind it is biochemical. The protocol:
In a first study, binding constants were determined, both by the NMR method of the present invention, and by a prior art enzymatic assay. The target molecule was the catalytic domain of stromelysin prepared in accordance with the procedures of Example 1. […] The KD values so obtained were compared to an inhibition constant KI as determined in an enzymatic assay.
The enzymatic assay measured the rate of cleavage of a fluorogenic substrate by following the fluorescence increase upon peptide cleavage which causes a separation between the fluorophore and quencher. Enzymatic activity was measured using a matrix of different concentrations of acetohydroxamic acid and biaryl compounds. The assay is a modification of the method described by H. Weingarten, et al. in Anal. Biochem., 147: 437-440 (1985) employing the fluorogenic substrate properties described by E. Matayoshi, et al. in Science: 247: 954-958 (1990).
Eight acetohydroxamic acid concentrations were used ranging from 0.0 to 1.0 M, and six compound concentrations were used, resulting in a total of 48 points. Individual compound concentration varied due to solubility and potency.
All NMR measurements were performed in the presence of 500 mM acetohydroxamic acid, except for the titration of acetohydroxamic acid itself. Dissociation constants were obtained from the dependence of the observed chemical shift changes upon added ligand. Inhibition constants were then obtained from the inhibition data using standard procedures.

The target of data set [3] is T2, Stromelysin (Homo sapiens, UniProt P08254).
T2 construct: expression construct coding for amino acid residues 81-256 plus an initiating methionine; initiating methionine (N); made in house; host or cells: E. coli BL21(DE3)/pLysS, pET3d
T2 sequence (P08254 98-273): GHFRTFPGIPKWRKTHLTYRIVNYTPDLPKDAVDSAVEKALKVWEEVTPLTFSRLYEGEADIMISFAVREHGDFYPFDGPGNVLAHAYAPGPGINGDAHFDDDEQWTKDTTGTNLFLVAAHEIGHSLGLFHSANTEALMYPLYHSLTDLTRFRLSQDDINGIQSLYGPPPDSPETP
As to the kind of experiment: inhibition of stromelysin degradation (autolysis). In kind it is biochemical. The settings on record: at a concentration of 500 mM. The protocol: Studies were performed to design new ligands that bound to the catalytic domain of stromelysin. Because stromelysin undergoes autolysis, an inhibitor was sought to block the degradation of stromelysin. That inhibitor would facilitate the screening of other potential ligands that bind to other sites on the enzyme.
A variety of hydroxamic acids of the general formula R-(CO)NHOH were screened for binding to stromelysin using the procedures set forth in Example 2.

A short description of data set [4]: water solubility. In kind it is physicochemical.

Where two headings read alike, the source gives them in different places.

T1 sequence (P08254 98-273): as above

With `CC(=O)NO` [Acetohydroxamic acid, acetohydroxamic acid, reference compound], the Kd in data set [1] (NMR screening of hydroxamic acids, read-out: binding affinity for stromelysin) came to 17 mM; in data set [1] (Table 3, titration of acetohydroxamic acid itself, read-out: NMR KD), 17 mM. This molecule also yielded a Ki in data set [2] of 21.1 mM. In addition, the “degradation of the enzyme” value in data set [3] was “inhibited the degradation of the enzyme”. The water solubility entry in data set [4] is “good water solubility”.
